We go through 4 molecules from patent US20090312380A1, “NOVEL COMPOSITIONS AND METHODS” (priority 2006, published 2009).

Holding throughout (assay type): physicochemical
Data set [1] is described as follows: Water surface area from GVS data, Excess Surface Work (ESW) model. Particulars: for Water Surface Area (WSA): ESW adsorption model, GVS adsorption runs. As to the method: The xy-data pairs used for the sorption isotherms (mRH, RH-levels) can also be used for a different approach to describe the sorption isotherm. Here, the change in chemical potential Δμ for the sorption process at each relative humidity (and at temperature T) is calculated:
with: R=Universal Gas Constant • T=Temperature • p=water partial pressure at humidity RH and temperature T • ps=water vapour saturation pressure at temperature T
Based on the change in chemical potential Δμ, an energetic term φ can be calculated for each relative humidity, termed excess surface work (ESW) according to J. Adolphs and M. J. Setzer, Journal of Colloid and Interface Science, vol. 180, pp. 70-76, 1996:
with: Φ=excess surface work • Δμ=change in chemical potential • nads=number of moles of water adsorbed in equilibrium at humidity RH
A plot of Φ/RT vs. nads can then be generated, to allow the value of nads at the minimum value of Φ/RT to be deduced. This value of nads corresponds to nmono.
(§1) The calculated monolayer coverage nmono obtained from the application of the gas sorption models to GVS data can be re-calculated to water surface area Awater, taking into account the mean cross sectional area aH2O occupied by one water molecule upon adsorption:
(§2) with: Awater=water surface area [m^2/g] • aH2O mean cross sectional area of one water molecule adsorbed 10^−19 m^2/molecule • nmono=apparent amount adsorbed in the monolayer [mol] • NL=Lochschmidt number=6×10^23 molecules/mol • mdry (sample)=dry mass of sample [g]
Likewise, the determination of the ESW water surface area is illustrated for sample A as follows.
A plot of Φ/RT versus the change in mass for sample A was then generated (see FIG. 3). From this, it could be deduced that the minimum value of Φ/RT corresponded to a change in mass of 0.0369 mg, the apparent monolayer amount. This is turn equated to a WSA of 6.65 m^2/g, using equation (A4) above, wherein mdry=18.57 mg.

Data set [2] is described as follows: Powder dissolution in 0.1N HCl (37° C.). To be noted: for dissolution characteristics: 0.1N HCl, 37° C., FIG. 4, compared with samples B and C; for dissolution kinetics: in the media, FIGS. 4 and 5. As to the method:
FIG. 4: Powder dissolution profiles in 0.1N HCl (37° C.) of samples of irbesartan. Dissolution experiments were executed in 0.1N HCt (37° C.) on the four micronised samples A-D of irbesartan. […] Thus with all other parameters being equal, it can be seen that the improved dissolution profile directly correlates to the increased water surface area of samples A and D.

The nature of data set [3]: Particle size profile of irbesartan samples. Particulars: for D (v, 0.1) particle size: 10 % of particles smaller; for D (v, 0.5) particle size: 50 % of particles smaller; for D (v, 0.9) particle size: 90 % of particles smaller. As to the method: The particle size profile of samples A-D of irbesartan were tested (see Table 1). It can be seen that across the range the particle sizes were very similar. Thus any difference in dissolution kinetics of samples from the relevant batch cannot be attributed to particle size. The D values represent particle size medians from the detected particle size distribution curves. D(v, x) means that 100x % of particles are smaller than the corresponding D value, and 100-100x % of particles are larger. The samples were also subjected to the Brunauer-Emmett-Teller (BET)-nitrogen adsorption analysis to determine the total surface area of the samples as follows: […]

Data set [4] is described as follows: Water surface area from GVS data, BET model. Particulars: for Water Surface Area (WSA): BET adsorption model, GVS adsorption runs; for water surface area (ranking): Table 6, compared to samples B or C; for surface hydrophilicity group predicted from the WSA data: WSA data of Table 6 (ESW and BET); for number of hydrophilic domains: from ESW and BET water surface areas and GVS results; for WSA compared with SSA: water surface area versus specific surface area (nitrogen).
Text: The multilayer sorption model according to Brunauer, Emmet and Teller Journal of the American Chemical Society, vol. 60, pp. 309, 1938) is described as follows:
with: n=number of moles adsorbed at p/p, (=RH/100) • nmono=apparent number of moles adsorbed in monolayer • p/ps=gas partial pressure (=RH/100 in the GVS experiments) • C=BET constant (measure for the strength of the sorption interaction)
From the sorption kinetics, the equilibrium weight changes at the end of each RH stage are extracted to compile xy-data pairs (RH vs. adsorbed amount).
From this, a plot of [p/ps]/[n(1−p/ps)] versus p/ps should give a linear correlation with intercept b=1/[C(nmono)] and slope m=b(C−1).
Evaluation is done by using 5-7 data points (RH vs. adsorbed amount) in the RH range 5-30% RH, which are then used for linear regression to obtain the intercept b and slope m (as explained above). The data is considered acceptable, if the correlation coefficient (r^2) of the linear regression is >0.95, although a correlation coefficient of ≧0.99 should be obtainable for most data sets. From slope and intercept, one can calculate the BET constant C and apparent monolayer amount nmono.
as §1, §2
The determination of the BET water surface area is illustrated for sample A as follows. From the relative humidity data and the mass difference, p/ps and [p/ps]/[n(1−p/ps)] were calculated to give the values shown in Table 4.
A plot of p/ps versus [p/ps]/[n(1−p/ps)] was then generated (see FIG. 2) allowing the slope (m=26.726) and the intercept (b=3.8219) to be calculated. Using the equations b=1/[C(nmono)] and m=b(C−1), the apparent monolayer amount, n^mono, was calculated to equate to 0.0327 mg. This in turn led to a WSA of 5.9 m^2/g, using equation (A4) above, wherein mdry=18.57 mg.

For the molecule `CCCCC1=NC2(CCCC2)C(=O)N1Cc1ccc(-c2ccccc2-c2nnn[nH]2)cc1` [Sample A, irbesartan], the “Water Surface Area (WSA)” value in data set [1] is given as 6.7 m^2/g. Moreover, the “Water Surface Area (WSA)” value in data set [1] (listed as sample A) came out at 6.65 m^2/g. The “apparent monolayer amount (change in mass at minimum of Φ/RT)” value in data set [1] (ESW model, mdry=18.57 mg) is listed as 0.0369 mg. In data set [2], the dissolution characteristics result is reported as “enhanced dissolution characteristics” and the dissolution kinetics entry is given as “significantly faster dissolution kinetics”. In data set [3], the “D (v, 0.1) particle size” value was found to be 1 μm; the “D (v, 0.5) particle size” value worked out at 3 μm; the “D (v, 0.9) particle size” value came out at 12 μm. Also, in data set [4], the “Water Surface Area (WSA)” value amounted to 5.9 m^2/g, the “water surface area (ranking)” value is on record as “largest water surface areas”, the “surface hydrophilicity group predicted from the WSA data” value (“surface hydrophilicity group predicted” below) is listed as “relatively hydrophilic” and the “number of hydrophilic domains” value is reported as “approximately twice the number of hydrophilic domains”. The “WSA compared with SSA” value in data set [4] is on record as “greater than the SSA”. For the same molecule, the “Water Surface Area (WSA)” value in data set [4] (listed as sample A) stood at 5.9 m^2/g. The “apparent monolayer amount nmono” value in data set [4] (BET model, mdry=18.57 mg) is 0.0327 mg.
In the case of `CCCCC1=NC2(CCCC2)C(=O)N1Cc1ccc(-c2ccccc2-c2nnn[nH]2)cc1` [Sample B, irbesartan], in data set [1], the “Water Surface Area (WSA)” value came to 3.0 m^2/g. In addition, the dissolution profile entry in data set [2] (compared with samples A and D) is “significantly poorer dissolution profile”. Also, in data set [3], the “D (v, 0.1) particle size” value stood at 1 μm; the “D (v, 0.5) particle size” value was 3 μm; the “D (v, 0.9) particle size” value was 17 μm. In addition, in data set [4], the “Water Surface Area (WSA)” value was determined as 3.2 m^2/g, the “surface hydrophilicity group predicted” value is “relatively hydrophobic” and the “number of hydrophilic domains” value was “approximately a similar number of hydrophilic domains as each other”.
Regarding `CCCCC1=NC2(CCCC2)C(=O)N1Cc1ccc(-c2ccccc2-c2nnn[nH]2)cc1` [Sample C, irbesartan], the “Water Surface Area (WSA)” value in data set [1] stood at 4.3 m^2/g. Moreover, in data set [3], the “D (v, 0.1) particle size” value was found to be 1 μm; the “D (v, 0.5) particle size” value stood at 5 μm; the “D (v, 0.9) particle size” value was 13 μm. For the same molecule, in data set [4], the “Water Surface Area (WSA)” value stood at 3.6 m^2/g, the “surface hydrophilicity group predicted” value is listed as “relatively hydrophobic”, the “number of hydrophilic domains” value was “approximately a similar number of hydrophilic domains as each other” and the “WSA compared with SSA” value is given as “greater than the SSA”.
Regarding `CCCCC1=NC2(CCCC2)C(=O)N1Cc1ccc(-c2ccccc2-c2nnn[nH]2)cc1` [Sample D, irbesartan], the “Water Surface Area (WSA)” value in data set [1] was found to be 6.5 m^2/g. Further, in data set [2], the dissolution characteristics result was “enhanced dissolution characteristics” and the dissolution kinetics entry is “significantly faster dissolution kinetics”. In data set [3], the “D (v, 0.1) particle size” value came out at 1 μm; the “D (v, 0.5) particle size” value is 3 μm; the “D (v, 0.9) particle size” value was 7 μm. Besides, in data set [4], the “Water Surface Area (WSA)” value is on record as 6.5 m^2/g, the “water surface area (ranking)” value is “largest water surface areas”, the “surface hydrophilicity group predicted” value is listed as “relatively hydrophilic” and the “number of hydrophilic domains” value is listed as “approximately twice the number of hydrophilic domains”. In addition, in data set [4], the “WSA compared with SSA” value is given as “greater than the SSA”.
